Assay results reported in paper PMC10775801 (Drug Design, Development and Therapy, 2024).
Where two headings read alike, the source gives them in different places.

Legend:
[1] = healthy volunteers, cited from earlier work
[2] = in vivo; set-up: species or system Sprague-Dawley rats; details: rat
[3] = type: in vitro ADME, rat; details: room temperature (25 °C for 24 h), sampler 4 °C for 24 h, three freeze-thaw cycles (−20 °C to 25 °C), −80 °C for 14 days
[4] = type: in vivo, Sprague-Dawley rats; details: rat plasma
[5] = SD rats, oral 15 mg/kg; cited from earlier work
[6] = mice, rats, and dogs; ref a previous article; cited from earlier work
[7] = oral 30 mg/kg, 4 h after administration

concentration at 2 h ([2]; male, Sprague-Dawley, in vivo, po, 30 mg/kg): 5050 ± 676 ng/g
presence in testis ([2]; oral 30 mg/kg): not found
highest concentration in heart [2, 7]: 70.49 ± 32.73 ng/g
highest concentration in kidney [2, 7]: 1787.02 ± 364.44 ng/g
highest concentration in lung [2, 7]: 3897.76 ± 217.27 ng/g
highest concentration in pancreas [2, 7]: 648.72 ± 305.97 ng/g
highest concentration in spleen ([2]; oral 30 mg/kg, 8 h after administration): 3891.80 ± 699.19 ng/g
detectability in the organs (except intestine) at 24 hours ([2]; oral 30 mg/kg, 24 hours after administration): still detectable
stability in plasma samples and homogenate [3]: stable
presence in plasma after intravenous administration ([4]; 10 h after intravenous administration): disappeared completely from the plasma
plasma concentration at 24 h ([4]; 24h after single oral administration): very low plasma concentration
SMILES: C=C(F)C(=O)N1CCN(c2nc(OC[C@@H]3CCCN3C)nc3c2CCN(c2cccc4cccc(Cl)c24)C3)C[C@@H]1CC#N [Adagrasib]
tmax ([1]; multiple-dose administration): 2.96 h
tmax ([1]; recommended dose of 600 mg): 4.17 h
Cmax [5]: 122.3 ng/mL
t1/2 [5]: 10.13 h
tmax [5]: 6 h
tmax [6]: 4 to 6 h
